Experimental data reported in BindingDB's records for patent US20250313563 (The Broad Institute, 2025).
Values joined by “and” are separate entries in the source; they are usually repeats but may differ in a detail not shown here. Equal values may be shown once.

How the values were obtained:
[1] = molecular target: Glycogen synthase kinase-3 beta (Homo sapiens, UniProt P49841); assay: TR-FRET Assay
How it was run: (§1)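 Compound was preincubated 30 min in assay buffer before the kinase reaction, which was quenched with EDTA. Phosphorylation was detected by TR-FRET after adding a solution of 40 nM streptavidin-d2 and 2 nM Tb-labelled anti-pSer641 antibody.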

[2] = molecular target: Glycogen synthase kinase-3 alpha (Homo sapiens, UniProt P49840); assay: TR-FRET Assay
Sequence of Glycogen synthase kinase-3 alpha (P49840 whole entry): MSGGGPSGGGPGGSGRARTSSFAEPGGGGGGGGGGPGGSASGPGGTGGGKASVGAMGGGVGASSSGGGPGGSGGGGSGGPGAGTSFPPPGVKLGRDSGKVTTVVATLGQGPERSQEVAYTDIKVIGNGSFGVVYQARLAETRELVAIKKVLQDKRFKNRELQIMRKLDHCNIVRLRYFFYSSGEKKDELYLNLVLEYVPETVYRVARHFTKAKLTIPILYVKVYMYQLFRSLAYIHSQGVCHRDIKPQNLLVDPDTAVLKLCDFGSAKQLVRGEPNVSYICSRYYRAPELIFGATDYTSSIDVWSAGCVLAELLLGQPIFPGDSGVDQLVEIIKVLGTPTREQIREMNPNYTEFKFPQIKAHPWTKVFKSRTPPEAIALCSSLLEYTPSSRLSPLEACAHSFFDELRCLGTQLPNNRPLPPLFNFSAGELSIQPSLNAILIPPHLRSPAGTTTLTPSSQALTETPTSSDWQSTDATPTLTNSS
How it was run: as §1

Sequence of Glycogen synthase kinase-3 beta (P49841 whole entry): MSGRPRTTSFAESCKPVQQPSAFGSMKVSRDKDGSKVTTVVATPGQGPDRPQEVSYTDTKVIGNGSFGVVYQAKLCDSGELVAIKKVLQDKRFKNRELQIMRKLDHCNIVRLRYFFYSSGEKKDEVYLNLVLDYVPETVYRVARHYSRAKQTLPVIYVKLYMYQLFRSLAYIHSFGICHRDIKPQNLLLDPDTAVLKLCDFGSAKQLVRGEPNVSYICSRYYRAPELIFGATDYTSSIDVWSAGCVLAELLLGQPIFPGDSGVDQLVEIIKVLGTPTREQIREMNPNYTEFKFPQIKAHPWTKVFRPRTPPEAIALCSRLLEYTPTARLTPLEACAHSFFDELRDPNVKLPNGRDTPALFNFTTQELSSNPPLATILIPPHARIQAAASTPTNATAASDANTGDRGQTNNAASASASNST

`CC[C@@]1(c2cccc(-c3ccnc(C)c3)c2)C2=C(N=NC2)NC2=C1C(=O)[C@H]1CC[C@@H]2C1` [US20250313563, Compound 943916] showed an IC50 [1] of 0.1 to 1 µM and an IC50 [2] of under 0.1 µM.
`CC[C@]1(c2cccc(-c3ccnc(C)c3)c2)C2=C(N=NC2)NC2=C1C(=O)[C@H]1CC[C@@H]2C1` [US20250313563, Compound 943917] showed an IC50 [1] of 0.1 to 1 µM and an IC50 [2] of under 0.1 µM.
In the case of `CC[C@]1(c2cccc(-c3ccncc3C(F)(F)F)c2)C2=CN=NC2NC2=C1C(=O)CC(C)(C)C2` (stereo partly specified) [US20250313563, Compound 943918], the IC50 [1] is reported as 1 to 5 µM and the IC50 [2] is reported as 0.1 to 1 µM.
Work on `CC[C@@]1(c2cccc(-c3ccnc(C(F)F)c3)c2)C2=CN=NC2NC2=C1C(=O)CC(C)(C)C2` (stereo partly specified) [US20250313563, Compound 943919] yielded an IC50 [1] of 0.1 to 1 µM and an IC50 [2] of under 0.1 µM.
For `CC[C@@]1(c2cccc(-c3ccnc(C)c3)c2)C2=C(N=NC2)NC2=C1C[C@@H]1CC[C@H]2C1` [US20250313563, Compound 943920], the IC50 [1] was over 5 µM and the IC50 [2] was 1 to 5 µM.
Compound `CC[C@]1(c2cccc(-c3ccnc(C)c3)c2)C2=CN=NC2NC2=C1C(=O)[C@@H]1CC[C@H]2C1` (stereo partly specified) [US20250313563, Compound 943921] has an IC50 [1] of over 5 µM and an IC50 [2] of 1 to 5 µM.
In the case of `CC1(C)CC(=O)C2=C(C1)NC1=C(CN=N1)[C@@]21COC2(CN(C(=O)c3ccccc3)C2)C1` [US20250313563, Compound 943955], the IC50 [1] is reported as under 0.1 µM and the IC50 [2] is reported as under 0.1 µM.
In the case of `CC1(C)CC(=O)C2=C(C1)NC1=C(CN=N1)[C@]21COC2(CN(C(=O)c3ccccc3)C2)C1` [US20250313563, Compound 943956], the IC50 [1] is reported as 1 to 5 µM and the IC50 [2] is reported as 0.1 to 1 µM.
With `CC1(C)CC(=O)C2=C(C1)NC1=C(CN=N1)[C@@]21COC2(CN(C(=O)C3CCCC3)C2)C1` [US20250313563, Compound 943957] the IC50 [1] was under 0.1 µM and the IC50 [2] was under 0.1 µM.
Work on `CC1(C)CC(=O)C2=C(C1)NC1=C(CN=N1)[C@]21COC2(CN(C(=O)C3CCCC3)C2)C1` [US20250313563, Compound 943958] yielded an IC50 [1] of 1 to 5 µM and an IC50 [2] of 0.1 to 1 µM.
Compound `CC1(C)CC2=C(C(=O)N1)C1(CCN(S(C)(=O)=O)CC1)C1=C(N=NC1)N2` [US20250313563, Compound 943959] has an IC50 [1] of 0.1 to 1 µM and an IC50 [2] of under 0.1 µM.
`CC1(C)CC2=C(C(=O)N1)C1(CCN(S(=O)(=O)C3CCCC3)CC1)C1=C(N=NC1)N2` [US20250313563, Compound 943960] was tested, and the IC50 [1] was < 0.1 µM and 0.1 to 1 µM and the IC50 [2] was < 0.1 µM and 0.1 to 1 µM.
For `CC1(C)CC2=C(C(=O)N1)C1(CCN(S(=O)(=O)c3ccc(F)cc3)CC1)C1=C(N=NC1)N2` [US20250313563, Compound 943963], the IC50 [1] was under 0.1 µM and the IC50 [2] was under 0.1 µM.
With `CC[C@]1(c2cccc(N(C)c3ncccn3)c2)C2=CN=NC2NC2=C1C(=O)NC(C)(C)C2` (stereo partly specified) [US20250313563, Compound 943964] the IC50 [1] was < 0.1 µM and 1 to 5 µM and the IC50 [2] was < 0.1 µM and 0.1 to 1 µM.
Compound `CC[C@@]1(c2cccc(N(C)c3ncccn3)c2)C2=CN=NC2NC2=C1C(=O)NC(C)(C)C2` (stereo partly specified) [US20250313563, Compound 943965] has an IC50 [1] of over 5 µM and an IC50 [2] of 0.1 to 1 µM.
In the case of `CC[C@@]1(c2cccc(-c3cc(C)nn3C)c2)C2=CN=NC2NC2=C1C(=O)NC(C)(C)C2` (stereo partly specified) [US20250313563, Compound 943967], the IC50 [1] is reported as over 5 µM and the IC50 [2] is reported as over 5 µM.
With `CC[C@]1(c2cccc(-c3ccnc(OC(F)(F)F)c3)c2)C2=CN=NC2NC2=C1C(=O)CC(C)(C)C2` (stereo partly specified) [US20250313563, Compound 943988] the IC50 [1] was 1 to 5 µM and the IC50 [2] was 0.1 to 1 µM.
`CC[C@@]1(c2cccc(-c3ccnc(C(F)(F)F)c3)c2)C2=CN=NC2NC2=C1C(=O)CC(C)(C)C2` (stereo partly specified) [US20250313563, Compound 943989] gave an IC50 [1] of over 5 µM and an IC50 [2] of over 5 µM.
`CC[C@@]1(c2cccc(-c3ccncc3C)c2)C2=CN=NC2NC2=C1C(=O)CC(C)(C)C2` (stereo partly specified) [US20250313563, Compound 943991] was tested, and the IC50 [1] was 1 to 5 µM and the IC50 [2] was 0.1 to 1 µM.
Compound `CC[C@@]1(c2cccc(-c3ccnc(O)c3)c2)C2=CN=NC2NC2=C1C(=O)CC(C)(C)C2` (stereo partly specified) [US20250313563, Compound 943993] has an IC50 [1] of over 5 µM and an IC50 [2] of over 5 µM.
`CC[C@@]1(c2cccc(-c3cnnc(C)c3)c2)C2=CN=NC2NC2=C1C(=O)CC(C)(C)C2` (stereo partly specified) [US20250313563, Compound 943994] showed an IC50 [1] of 1 to 5 µM and an IC50 [2] of 0.1 to 1 µM.
For `CC[C@@]1(c2cccc(-c3cnnc(C)c3)c2)C2=CN=NC2NC2=C1C(=O)CC(C)(C)C2` (stereo partly specified) [US20250313563, Compound 943995], the IC50 [1] was over 5 µM and the IC50 [2] was 0.1 to 1 µM.
For `CCC1(c2cccc(-c3c(C)nnn3C)c2)C2=CN=NC2NC2=C1C(=O)CC(C)(C)C2` (stereo unspecified) [US20250313563, Compound 943996], the IC50 [1] was < 0.1 µM and 0.1 to 1 µM and the IC50 [2] was under 0.1 µM.
In the case of `CCC1(c2cccc(S(=O)(=O)C3COC3)c2)C2=CN=NC2NC2=C1C(=O)CC(C)(C)C2` (stereo unspecified) [US20250313563, Compound 944017], the IC50 [1] is reported as under 0.1 µM and the IC50 [2] is reported as under 0.1 µM.
Compound `CCC1(c2cccc(S(=O)(=O)C3CCOC3)c2)C2=CN=NC2NC2=C1C(=O)CC(C)(C)C2` (stereo unspecified) [US20250313563, Compound 944018] has an IC50 [1] of under 0.1 µM and an IC50 [2] of under 0.1 µM.
For `CCC1(c2cccc(S(=O)(=O)C3CC(F)(F)C3)c2)C2=CN=NC2NC2=C1C(=O)CC(C)(C)C2` (stereo unspecified) [US20250313563, Compound 944019], the IC50 [1] was under 0.1 µM and the IC50 [2] was under 0.1 µM.
Compound `CCC1(c2cccc(S(C)(=O)=O)c2)C2=CN=NC2NC2=C1C(=O)NC(C)(C)C2` (stereo unspecified) [US20250313563, Compound 944020] has an IC50 [1] of under 0.1 µM and an IC50 [2] of under 0.1 µM.
`CCC1(c2cccc(-c3cnn(C)c3C)c2)C2=CN=NC2NC2=C1C(=O)NC(C)(C)C2` (stereo unspecified) [US20250313563, Compound 944021] showed an IC50 [1] of 0.1 to 1 µM and an IC50 [2] of under 0.1 µM.
`CCC1(c2cccc(C3=CN=NC3)c2)C2=CN=NC2NC2=C1C(=O)NC(C)(C)C2` (stereo unspecified) [US20250313563, Compound 944022] gave an IC50 [1] of 0.1 to 1 µM and an IC50 [2] of under 0.1 µM.
Work on `CCc1cccc(N(C)c2cccc(C3(CC)C4=CN=NC4NC4=C3C(=O)CC(C)(C)C4)c2)n1` (stereo unspecified) [US20250313563, Compound 944023] yielded an IC50 [1] of 0.1 to 1 µM and an IC50 [2] of under 0.1 µM.
`CCC1(c2cccc(-c3ccncc3O)c2)C2=C(CC(C)(C)CC2=O)NC2N=NC(C)=C21` (stereo unspecified) [US20250313563, Compound 944024] was tested, and the IC50 [1] was under 0.1 µM and the IC50 [2] was under 0.1 µM.
`CCC1(c2cccc(-c3cnco3)c2)C2=CN=NC2NC2=C1C(=O)CC(C)(C)C2` (stereo unspecified) [US20250313563, Compound 944025] was tested, and the IC50 [1] was 0.1 to 1 µM and the IC50 [2] was under 0.1 µM.
Work on `CCC1(c2cccc(-c3cncn3C(C)C)c2)C2=CN=NC2NC2=C1C(=O)CC(C)(C)C2` (stereo unspecified) [US20250313563, Compound 944026] yielded an IC50 [1] of under 0.1 µM and an IC50 [2] of under 0.1 µM.
For `CCC1(c2cccc(-c3cnn(C)c3)c2)C2=C(CC(C)(C)NC2=O)NC2N=NC(C)=C21` (stereo unspecified) [US20250313563, Compound 944027], the IC50 [1] was 0.1 to 1 µM and the IC50 [2] was under 0.1 µM.
In the case of `CCC1(c2cccc(-c3cnn(C)c3C)c2)C2=C(CC(C)(C)NC2=O)NC2N=NC(C)=C21` (stereo unspecified) [US20250313563, Compound 944028], the IC50 [1] is reported as 0.1 to 1 µM and the IC50 [2] is reported as under 0.1 µM.
Compound `CCC1(c2cccc(-c3ccnc(C(C)O)c3)c2)C2=CN=NC2NC2=C1C(=O)CC(C)(C)C2` (stereo unspecified) [US20250313563, Compound 944029] has an IC50 [1] of 0.1 to 1 µM and an IC50 [2] of under 0.1 µM.
`CCC1(c2cccc(-c3cn(C)nc3C)c2)C2=CN=NC2NC2=C1C(=O)NC(C)(C)C2` (stereo unspecified) [US20250313563, Compound 944030] gave an IC50 [1] of under 0.1 µM and an IC50 [2] of under 0.1 µM.
`CC[C@@]1(c2cccc(-c3ccnc4ccccc34)c2)C2=CN=NC2NC2=C1C(=O)CC(C)(C)C2` (stereo partly specified) [US20250313563, Compound 944031] gave an IC50 [1] of under 0.1 µM and an IC50 [2] of under 0.1 µM.
